# Results from patent publication US8871762B2, “Plant disease controlling composition and method for controlling plant disease” (Sumitomo Chemical Company, Limited, priority 2010, dated 2014).
# Read-outs that look alike come from different tables or passages of the source.
# Tested on: gray mold fungus (Botrytis cinerea)
# Experiment: Cucumber leaf disk preventive test against gray mold fungus
# Format: in vivo
# Conditions: for pest or weed control at 0.5 ppm / pest or weed control at 5 ppm: Botrytis cinerea, foliar, 96 h, read-out: preventive value (%)
# Experimental: True leaf of cucumber is punched out with cork borer to 13 mm in diameter to prepare a leaf disk. In 24 well microwell plate that is dispensed with 1 ml 0.8% water agar, the leaf disk is placed such that the upper side of the leaf is in an upward direction. Thereto is added 20 micro liter a testing solution prepared by mixing a dimethyl sulfoxide solution of the present compound (racemate) and a dimethyl sulfoxide solution of isopyrazam, boscalid or penthiopyrad to a predetermined concentration to treat the leaf disk.
# After confirming that the testing medical solution is dried, conidium of gray mold fungus (Botrytis cinerea) is suspended into potato dextrose broth (DIFCO) in a density of about 10^5 conidium/mL and is then subjected to a spray inoculation. After leaving to stand the leaf disk in a growth chamber set up at 15° C. for four days, an onset area on the leaf is measured and then calculated an onset area rate (hereinafter, referred to as an onset area rate of treated group).
# The same operation is carried out with 20 micro liter water instead of 20 micro liter a testing medicine solution to calculate an onset area rate (hereinafter, referred to an onset area rate of non-treated group).
# A preventive value is calculated from the above onset area rate of treated group and the onset area rate of non-treated group by the following equation: Preventive value(%)=100×(A−B)/A
# A: an onset area rate of treated group
# B: an onset area rate of non-treated group […]
# For comparison, the same operations as described in Test Example 1 are carried out with the exception that the testing medicine solution is substituted with a predetermined concentration of each dimethyl sulfoxide solution of isopyrazam, boscalid or penthiopyrad, so as to calculate respective preventive values.
# [1] = carboxamide compound alone, 0.5 ppm, cucumber leaf disk, 15° C., four days
# [2] = carboxamide compound alone, 5.0 ppm, cucumber leaf disk, 15° C., four days
Compound,preventive value (%) [1],preventive value (%) [2],pest or weed control at 0.5 ppm [1],pest or weed control at 5 ppm [2],further results
CC(C)C1C2CCC1c1c(NC(=O)c3cn(C)nc3C(F)F)cccc12 (stereo not drawn) [isopyrazam],20%,40%,–,–,–
CC(C)CC(C)c1sccc1NC(=O)c1cn(C)nc1C(F)(F)F (stereo not drawn) [penthiopyrad],–,–,39%,45%,–
COCC(=O)N(c1c(C)cccc1C)N1CCOC1=O [oxadixyl],–,–,–,–,pest or weed control at 0.5 ppm: 10%; pest or weed control at 5 ppm: 15%
COc1ccc(C(=CC(=O)N2CCOCC2)c2ccc(Cl)cc2)cc1OC [dimethomorph],–,–,10%,15%,–
N#Cc1ccccc1NC(=O)c1snc(Cl)c1Cl [isotianil],10%,25%,–,–,–
CC1(C(=O)Nc2ccc(O)c(Cl)c2Cl)CCCCC1 [fenhexamid],–,–,20%,57%,–
O=C(Nc1ccccc1-c1ccc(Cl)cc1)c1cccnc1Cl [boscalid],–,–,49%,56%,–
COC(=O)[C@@H](C)N(C(=O)Cc1ccccc1)c1c(C)cccc1C [benalaxyl-M],10%,15%,–,–,–
O=C(Nc1ccccc1)N(Cc1ccc(Cl)cc1)C1CCCC1 [pencycuron],–,–,10%,15%,–
Cc1nn(C)c(Cl)c1C(=O)Nc1cccc2c1C(C)OC2(C)C (stereo not drawn) [furametpyr],15%,20%,–,–,–
O=C(NCCc1ncc(C(F)(F)F)cc1Cl)c1ccccc1C(F)(F)F [fluopyram],–,–,35%,45%,–
C[C@@H](NC(=O)C(C#N)C(C)(C)C)c1ccc(Cl)cc1Cl (stereo partly drawn) [diclocymet],–,–,–,–,pest or weed control at 0.5 ppm: 10%; pest or weed control at 5 ppm: 15%
